Molecules are shown by their SMILES. Values after ≈ are worked out from the molar mass of the structure shown. Bounds are passed on as bounds.

The conditions of the data set: buffer; pH 7.4; 200.0 µM.
As usually defined, the kinetic solubility is the concentration staying in solution when a stock, usually in DMSO, is diluted into the medium. `CN(CC(=O)NCC1CCCCC1)S(=O)(=O)c1ccc(F)cc1`: the kinetic solubility stood at 0.0162 mg/mL (≈ 47.3 µM). The result for `Cc1onc(-c2ccccc2)c1C(=O)Nc1cccc(S(=O)(=O)N2CCCCC2)c1` reads 0.0025 mg/mL (≈ 5.88 µM); that for `CCCOc1ccc(C2Nc3cccc4cccc(c34)N2)cc1`, 0.0038 mg/mL (≈ 12.5 µM); that for `CCN(CC)P(=O)(Oc1ccccc1)Oc1ccccc1`, 0.0342 mg/mL (≈ 112 µM). The result for `CC(Cc1c[nH]c2ccccc12)NC(=O)OCCCl` (stereo unspecified) reads over 0.0421 mg/mL; that for `Nc1cccc(NP(=O)(c2ccccc2)c2ccccc2)c1`, 0.0017 mg/mL (≈ 5.51 µM).

In turn, `CSc1nc(=S)n(-c2ccccc2)c(C)c1C(C)=O` yielded a solubility (kinetic) of 0.0417 mg/mL (≈ 144 µM). This solubility kinetic lies about 25-fold higher than the previous one. Compound `Cc1cc(C)cc(NC(=O)CN2C(=O)NC(Cc3c[nH]c4ccccc34)C2=O)c1` (stereo unspecified) displayed a solubility (kinetic) of 0.002 mg/mL (≈ 5.12 µM). The result for `O=c1[nH]c(=O)n(CCc2ccccc2)c(O)c1C=NC1CC1` reads 0.0103 mg/mL (≈ 34.4 µM); that for `Cc1cc(C)cc(NC(=O)CCN2CCCC2)c1`, 0.0353 mg/mL (≈ 143 µM); that for `O=C(NCCCNC(=O)c1ccccc1F)c1ccco1`, 0.0434 mg/mL (≈ 150 µM). To `CC1(C)CC(CCN)(Cc2ccccc2Cl)CCO1` (stereo unspecified) belongs 0.0377 mg/mL (≈ 134 µM); to `CSc1ccccc1C(=O)Nc1c(C)cccc1C`, 0.0229 mg/mL (≈ 84.4 µM); to `CC1CN(C(=S)Nc2ccc(Cl)cc2)CC(C)O1` (stereo unspecified), over 0.0427 mg/mL. To `Cc1cc(NC(=O)c2cc(-c3ccc(Br)cc3)on2)no1` belongs 0.003 mg/mL (≈ 8.62 µM); to `CCC(CC)C(=O)c1c[nH]c(C(=O)NCc2cccnc2)c1`, 0.0422 mg/mL (≈ 141 µM); to `COc1cccc(/C=C2\N=C(C3CCCCC3)OC2=O)c1OC`, 0.0164 mg/mL (≈ 52 µM). `CN(C)c1ccc(C(=S)N2CCCC2)cc1Br` registered a solubility (kinetic) of 0.044 mg/mL (≈ 140 µM). For `Cc1ccc(S(=O)(=O)Nc2ccncc2)c(C)c1.Cl`, the solubility (kinetic) is over 0.0448 mg/mL. `Cc1ccc(CNS(=O)(=O)c2ccc(C)s2)cc1` came in with a solubility (kinetic) of over 0.0422 mg/mL. The result for `Cc1ccc(OCC(=O)N2CCc3ccccc3C2)cc1` reads over 0.0422 mg/mL. The result for `Cc1cc(C)cc(OCC(=O)OCC(=O)NC2CCCC2)c1` reads 0.0385 mg/mL (≈ 126 µM); that for `CC1(C)CC(NS(=O)(=O)c2ccc(Cl)cc2)CC(C)(C)N1`, over 0.0496 mg/mL.

`CCOc1ccccc1N1CCN(C(=O)CC(C)(C)C)CC1` displayed a solubility (kinetic) of 0.0451 mg/mL (≈ 148 µM). The compound `COc1ccc(NC(=O)CCCSc2ccccc2)cc1` showed a solubility (kinetic) of 0.0172 mg/mL (≈ 57.1 µM). To `CC(=O)C1=C(O)C(=O)N(c2ccc(O)cc2)C1c1ccc([N+](=O)[O-])cc1` (stereo unspecified) belongs over 0.0531 mg/mL; to `Cl.Clc1cccc2c3c([nH]c12)CCNC3`, 0.0258 mg/mL; to `COc1ccc(NC(=O)Cn2c([N+](=O)[O-])cnc2C)cc1Cl`, 0.002 mg/mL (≈ 6.16 µM). Turning to `CCc1c(O)nc(SC2CC(=O)N(c3ccc(F)c(Cl)c3)C2=O)[nH]c1=O` (stereo unspecified), the kinetic solubility stood at 0.0557 mg/mL (≈ 140 µM). The result for `CC(C)(C)c1cc(NC(=O)Nc2ccccc2OC(F)(F)F)no1` reads under 0.0002 mg/mL; that for `O=C(NCc1ccc(Cl)cc1)Nc1ccc(F)cc1`, 0.0013 mg/mL (≈ 4.66 µM); that for `CC(=O)Nc1nc(C)cs1`, over 0.0234 mg/mL. To `Cc1cccc2c(N=O)c(O)[nH]c12` belongs over 0.0264 mg/mL; to `Cl.O=C(O)CN1CCCCC1`, 0.0238 mg/mL. The result for `O=C(Nc1ccc(Cl)cc1Cl)c1cc2ccccc2o1` reads under 0.0007 mg/mL; that for `Cc1ccc(CNC(=O)c2cc(=O)c3cc(C)ccc3o2)cc1`, under 0.0007 mg/mL; that for `CCc1ccc(N(CC)C(=O)c2cn(C)c(=O)c3ccccc23)cc1`, over 0.0502 mg/mL. Turning to `COc1ccc(NC(=O)Nc2nc3ccccc3s2)cc1`, the kinetic solubility was under 0.0002 mg/mL. The result for `O=C(O)c1nccnc1C(=O)NCCc1c[nH]c2ccccc12` reads 0.0421 mg/mL (≈ 136 µM); that for `CCOc1ccc(S(=O)(=O)Nc2ccc(C(=O)N3CCCC3)cc2)cc1`, 0.0533 mg/mL (≈ 142 µM). Compound `O=C(c1ccc(NS(=O)(=O)c2ccccc2)cc1)N1CCOCC1` returned a solubility (kinetic) of over 0.052 mg/mL.

The compound `CCOC(=O)c1cc(C(=O)NC(C)c2ccccc2)c(C)[nH]c1=O` (stereo unspecified) came in with a kinetic solubility of 0.0027 mg/mL (≈ 8.22 µM).

For `C=CCNC(=O)COC(=O)COc1ccc(Cl)cc1`, the solubility (kinetic) is over 0.0426 mg/mL. For `CCC(C)c1ccc(NC(=S)NCc2ccccn2)cc1` (stereo unspecified), the solubility (kinetic) amounted to 0.0385 mg/mL (≈ 129 µM). The result for `S=C(Nc1ccccn1)NC1CCCCC1` reads 0.0057 mg/mL (≈ 24.2 µM); that for `Cc1ccc(CN2CCC(N3CC(C)OC(C)C3)CC2)cc1.Cl` (stereo unspecified), 0.0318 mg/mL. The result for `Cc1cc(C)nc(N2CCC(C(=O)NC3CC3)CC2)n1` reads 0.0364 mg/mL (≈ 133 µM); that for `O=C(O)Cn1c(-c2ccccn2)nc2ccccc21`, over 0.038 mg/mL.

Compound `Cc1ccccc1OP(N)(=O)Oc1ccccc1C` registered a kinetic solubility of over 0.0416 mg/mL.

Take `CN(C)C(=O)c1ccc(-n2cnc3ccccc3c2=O)cc1`: the solubility (kinetic) was over 0.044 mg/mL. `O=C(O)Cc1ccc(S(=O)(=O)N2CCCC2)s1` gave a kinetic solubility of over 0.0413 mg/mL. Consider `COc1ccc(NC(=O)Nc2ccccn2)cc1OC`, for which the kinetic solubility was determined as 0.0167 mg/mL (≈ 61.1 µM).

In turn, `CCOc1ccccc1CNc1nc2ccccc2n1C` had a kinetic solubility of 0.0052 mg/mL (≈ 18.5 µM). Consider `O=C(Nc1nnc(C2=COCCO2)o1)c1cccc(F)c1`, for which the kinetic solubility is over 0.0437 mg/mL. The result for `COc1ccc(NC(=O)c2ccc(N3CCOCC3)nc2)cc1` reads 0.0063 mg/mL (≈ 20.1 µM); that for `O=[N+]([O-])c1cc(C(F)(F)F)ccc1NCCc1ccncc1`, 0.0016 mg/mL (≈ 5.14 µM); that for `O=c1onc(-c2cccnc2)n1-c1ccccc1F`, 0.033 mg/mL (≈ 128 µM). In the case of `COc1ccc([C@@H]2OC2(C(N)=O)C(N)=O)cc1`, the kinetic solubility was determined as 0.0322 mg/mL (≈ 136 µM). The compound `O=C(Oc1ccc(C(=S)N2CCOCC2)cc1)c1cccc(Cl)c1` displayed a solubility (kinetic) of under 0.0008 mg/mL. In turn, `O=C(Nc1ccc(N2CCCCC2)cc1)c1ccc2ccccc2n1` had a solubility (kinetic) of under 0.0002 mg/mL.

In the case of `O=C(NCC(c1cccs1)N1CCOCC1)c1cnc(Cl)c(Cl)c1` (stereo unspecified), the kinetic solubility was over 0.0579 mg/mL. To `O=C(Nc1ccc2c(c1)OCO2)c1ccc([N+](=O)[O-])cc1[N+](=O)[O-]` belongs 0.0106 mg/mL (≈ 32 µM). To `CCCn1c(C)cc(C=O)c1C` belongs 0.0163 mg/mL (≈ 98.6 µM); to `O=C(O)CCCC(=O)Nc1ccc(Oc2cccc(C(F)(F)F)c2)nc1`, over 0.0552 mg/mL. To `O=C(COc1ccc(Cl)cc1Br)NC1CC1` belongs over 0.0457 mg/mL; to `Cc1cc(C)cc(NC(=O)CCOc2ccccc2)c1`, 0.0041 mg/mL (≈ 15.2 µM).

`CC(C)(C)c1ccc(-c2noc(-c3ccc4c(c3)CCO4)n2)cc1` gave a solubility (kinetic) of 0.0008 mg/mL (≈ 2.5 µM). Take `COc1cccc(C(=O)OCC(=O)N2CCC(Cc3ccccc3)CC2)c1OC`: the solubility (kinetic) came to 0.0281 mg/mL (≈ 70.7 µM). This solubility kinetic lies about 35-fold higher than the previous one. To `CCOC(=O)c1sc(S(C)(=O)=O)c2c1CCc1conc1-2` belongs 0.004 mg/mL (≈ 12.2 µM); to `O=C1CNC(=S)N1Cc1ccc(Cl)cc1`, over 0.0361 mg/mL.

In turn, `O=C(CCNS(=O)(=O)c1ccccc1)Nc1ccccc1` gave a kinetic solubility of over 0.0457 mg/mL.

`Cl.N[C@H]1C(O)O[C@H](CO)[C@@H](O)[C@@H]1O` (stereo partly specified) registered a kinetic solubility of over 0.0323 mg/mL. `Cl.NCCC(=O)N1c2ccccc2Sc2ccccc21` displayed a solubility (kinetic) of 0.0299 mg/mL.

Compound `CC(=Nc1ccc(F)cc1)c1c(O)n(C)c(=O)[nH]c1=O` yielded a solubility (kinetic) of 0.007 mg/mL (≈ 25.2 µM).

For `CC(C)c1cc(C(=O)O)c2ccccc2n1`, the solubility (kinetic) was determined as 0.0282 mg/mL (≈ 131 µM).

The compound `CCOC(=O)CC(=O)Nc1ccsc1C(N)=O` yielded a kinetic solubility of 0.0361 mg/mL (≈ 141 µM). With `CC(=O)Nc1cccc(NC(=O)CSc2nnc3ccccn23)c1`, the kinetic solubility is over 0.0512 mg/mL. `O=C(CN1CCN(Cc2ccccc2F)C1=O)NCC1CCCO1` (stereo unspecified) returned a solubility (kinetic) of over 0.0503 mg/mL. To `CN(CC1COc2ccccc2O1)C(=O)CSc1ncccn1` (stereo unspecified) belongs over 0.0497 mg/mL; to `C=CCNC(=O)c1ccc(CSc2nc3ccccc3s2)cc1`, 0.0082 mg/mL (≈ 24.1 µM). Compound `Cc1cc(Cl)ccc1NC(=S)NC1CCCC1` displayed a solubility (kinetic) of 0.0181 mg/mL (≈ 67.3 µM). In the case of `COc1ccccc1NCC(=O)NC(=O)NC1CCCCC1`, the kinetic solubility was determined as 0.0059 mg/mL (≈ 19.3 µM). To `O=C(O)c1ccccc1C(=O)Nc1c(-c2ccccc2)nc2ccccn12` belongs 0.0496 mg/mL (≈ 139 µM).

`COc1ccc(CCNC(=S)c2ccccc2)cc1OC` yielded a kinetic solubility of over 0.0452 mg/mL. The result for `CCc1ncc(/C=C2\C(=O)Nc3ccccc32)[nH]1` reads 0.0067 mg/mL (≈ 28 µM); that for `O=[N+]([O-])c1ccc(Cl)cc1CN1CCCCCC1`, 0.0167 mg/mL (≈ 62.1 µM).

Turning to `COc1cccc(S(=O)(=O)Nc2ccc3c(c2)OCCO3)c1`, the kinetic solubility was over 0.0482 mg/mL.

`C=CCn1c(=O)c(C(=O)Nc2cc(C)ccn2)c(O)c2ccccc21` showed a solubility (kinetic) of under 0.0002 mg/mL. As for `CCOc1cc(/C=C2/NC(=O)N(CC(=O)OC)C2=O)ccc1O`, the solubility (kinetic) amounted to 0.0148 mg/mL (≈ 46.2 µM).

As to `O=C(CSc1nccc(=O)[nH]1)c1ccco1`, the kinetic solubility was over 0.0354 mg/mL. To `CCC(CCC(=O)Nc1cccc([N+](=O)[O-])c1)C(=O)O` (stereo unspecified) belongs over 0.042 mg/mL; to `Cn1c(Cc2ccccc2)nnc1SCC(=O)NC1CCCC1`, over 0.0496 mg/mL; to `COc1ccc(C(=O)CCNc2ccc(F)cc2)cc1`, under 0.0006 mg/mL. As to `O=C(O)c1csc(-c2cccs2)n1`, the kinetic solubility is over 0.0317 mg/mL.

`O=C(c1cccs1)N1CCN(S(=O)(=O)c2cccs2)CC1`: the solubility (kinetic) stood at 0.0473 mg/mL (≈ 138 µM). The result for `COCCN(C(=O)COC(=O)Cc1c(C)nc2ccccc2c1C)c1c(N)n(CC(C)C)c(=O)[nH]c1=O` reads 0.0642 mg/mL (≈ 125 µM); that for `CC[N+](CC)(CC)CC.[Cl-]`, 0.0203 mg/mL; that for `CCCOc1cccc(C(=O)Nc2ccc(CN3CCOCC3)cc2)c1`, 0.0472 mg/mL (≈ 133 µM).

In turn, `Cn1cc([N+](=O)[O-])c(C(=O)NCC(=O)O)n1` returned a solubility (kinetic) of over 0.0342 mg/mL. To `O=C(NNC(=O)c1ccco1)c1csc(N2CCOCC2)n1` belongs over 0.0484 mg/mL.

Consider `NS(=O)(=O)c1ccc(NC(=S)NC(=O)C2CCCCC2)cc1`, for which the kinetic solubility was over 0.0512 mg/mL. To `CCOC(=O)c1sc(NC(=O)CSC(=S)N2CCN(C)CC2)nc1C` belongs over 0.0604 mg/mL; to `CCOC(=O)CSc1nc2ccccc2c(=O)n1CC(C)C`, 0.0042 mg/mL (≈ 13.1 µM).

In turn, `COCCSc1ccccc1C(=O)NCCc1ccccc1` yielded a solubility (kinetic) of over 0.0473 mg/mL. `O=C(O)C1C2CCC(CC2)C1C(=O)N1CCN(Cc2ccc(F)cc2)CC1` (stereo unspecified) had a solubility (kinetic) of over 0.0562 mg/mL. To `CC1(C(=O)OCC(=O)Nc2ccccc2)CC1(Cl)Cl` (stereo unspecified) belongs 0.035 mg/mL (≈ 116 µM).

(Values after PubChem BioAssay AID1996.)
